Usually solubility stands for how much of the substance goes into solution per volume. Low readings indicate a poorly soluble substance, high ones a readily soluble substance.

Converted amounts (≈) assume the structure as drawn.

We go through 3 compounds from patent EP4538272B1, “CRYSTAL OF N-(BENZOYL)-PHE[…], AND PHARMACEUTICAL COMPOSITION THEREOF, AND PREPARATION METHOD THEREFOR AND USE THEREOF” (Hangzhou Apeloa Medicine Research Institute Co., Ltd., priority 2022, dated 2023).

Common to all, as to format: physicochemical
Data set [1] is described as follows: Solid-state stability test (high temperature, high humidity, light exposure, acceleration); purity by HPLC, crystal form by XRPD. The settings on record: for change in the purity and form: 15 days under 60°C, 92.5% RH, 4500lux and 40°C/75% RH, respectively. The method, then: Put an appropriate amount of the test sample (the compound shown by Formula (I) in the form of Crystal Form A) on a watch glass, spread it into a thin layer ≤ 5mm thick, and place it under a high temperature of 60°C, a high humidity of 92.5% RH, a light exposure of 4500lux and an acceleration condition of 40°C/75% RH for 15 days, respectively. Sample on the 7th and 15th day to observe the color change of the samples. Analyze the sample purity and crystal form through HPLC and XPRD detection, respectively. Table 5. Test results of Crystal Form A and amorphous stability
Put an appropriate amount of the test sample (the compound shown by Formula (II) in the form of Crystal Form B) on a watch glass, spread it into a thin layer ≤ 5mm thick, and place it under a high temperature of 60°C, a high humidity of 92.5% RH, a light exposure of 4500lux and an acceleration condition of 40°C/75% RH for 15 days, respectively. Sample on the 15th day to observe the color change of the sample. Analyze the sample purity and crystal form through HPLC and XPRD detection, respectively. Table 8. Test results of Crystal Form B stability

Data set [2] in a line: Hygroscopicity test with dynamic moisture absorber (DVS). The settings on record: for Weight gain at 80% RH: 25°C; for hygroscopicity (according to the definition criteria for hygroscopic weight gain): based on weight gain at 80% RH. The method, then: The hygroscopicity results in the present invention can be measured using a DVS Intrinsic dynamic moisture and gas absorber from Surface Measurement Systems of the UK. Humidity variation: 50%-95%-0%-50%. The humidity change for each gradient within0% ~ 90% is 10%. Airflow: 200ml/min; temperature: 25°C; testing point: one testing point taken every 10% increase in humidity.
Take an appropriate amount of the test sample (the compound shown by Formula (I) in the form of Crystal Form A) to test its hygroscopicity with a dynamic moisture absorber. Table 4. Hygroscopicity test results for Crystal Form A of the present invention
Take an appropriate amount of the test sample (the compound shown by Formula (II) in the form of Crystal Form B) to test its hygroscopicity with a dynamic moisture absorber. Table 7. Hygroscopicity test results for Crystal Form B of the present invention

Data set [3] in a line: Solubility test in biological media (FaSSIF, FeSSIF), HPLC detection. The settings on record: for solubility (result in words): in FeSSIF and FaSSIF; for solubility at 0.5 h / solubility at 2 h / solubility at 24 h: 37°C. The method, then:
Add 20mg of the sample (the compound shown by Formula (I) in the form of Crystal Form A) into a 10ml conical tube, and then add 4ml of water or biological medium (FeSSIF (pH 5.0) or FaSSIF (pH 6.5)), respectively. Shake the solution at 37°C for 24h in a constant temperature bath at 1000rpm, and take samples at 0.5h, 2h and 24h, respectively. Filter the samples through an aquo-system microporous filter membrane and discard the initial filtrate to obtain the test solution.
Perform an HPLC detection for the test solution (20µL), and calculate the sample concentration according to the standard curve method. Table 3. Solubility test results of Crystal Form A in different media
Add 20mg of the sample (the compound shown by Formula (II) in the form of Crystal Form B) into a 10ml conical tube, and then add 4ml of water or biological medium (FeSSIF (pH 5.0) or FaSSIF (pH 6.5)), respectively. Shake the solution at 37°C for 24h in a constant temperature bath at 1000rpm, and take samples at 0.5h, 2h and 24h, respectively. Filter the samples through an aquo-system microporous filter membrane and discard the initial filtrate to obtain the test solution.
Perform an HPLC detection for the test solution (20µL), and calculate the sample concentration according to the standard curve method. Table 6. Solubility test results of Crystal Form B in different media

With `O=C(N[C@@H](Cc1ccc(N2C(=O)C3(CC3)c3ccc(F)c(F)c32)cc1)C(=O)O)c1c(F)cccc1Cl` [Amorphous, (S)-2-(2-chloro-6-fluorobenzoyl amido)-3-(4-(6',7'-difluoro-2'-oxospiro [cyclopropane-1,3'-indoline]-1'-yl)phenyl) propionic acid], the purity is reported as 89.70% in data set [1] (Acceleration 40°C/75%RH, 15d); 93.06% in data set [1] (High humidity 92.5%RH, 15d); 91.89% in data set [1] (High temperature 60°C, 15d); 94.91% in data set [1] (Light exposure 4500lux, 15d).
As to `O=C(N[C@@H](Cc1ccc(N2C(=O)C3(CC3)c3ccc(F)c(F)c32)cc1)C(=O)O)c1c(F)cccc1Cl` [Crystal Form A, (S)-2-(2-chloro-6-fluorobenzoyl amido)-3-(4-(6',7'-difluoro-2'-oxospiro [cyclopropane-1,3'-indoline]-1'-yl)phenyl) propionic acid], the “Weight gain at 80% RH” value in data set [2] came out at 0.09%. In addition, in data set [2], the “hygroscopicity (according to the definition criteria for hygroscopic weight gain)” value is “no or almost no hygroscopicity”. For the same compound, in data set [1], the “change in the purity and form” value was “no significant change”. The “Form (crystal form by XRPD)” value in data set [1] (Acceleration 40°C/75%RH, 7d) is “Unchanged”; in data set [1] (Acceleration 40°C/75%RH, 15d) it was “Unchanged”; in data set [1] (High humidity 92.5%RH, 7d) it was “Unchanged”; in data set [1] (High humidity 92.5%RH, 15d) it was “Unchanged”; in data set [1] (High temperature 60°C, 7d), “Unchanged”; in data set [1] (High temperature 60°C, 15d) it was “Unchanged”. Moreover, the “Form (crystal form by XRPD)” value in data set [1] (Light exposure 4500lux, 7d) was “Unchanged”; in data set [1] (Light exposure 4500lux, 15d) it was “Unchanged”. The purity worked out at 99.4% in data set [1] (Acceleration 40°C/75%RH, 7d); 99.4% in data set [1] (Acceleration 40°C/75%RH, 15d); 99.3% in data set [1] (High humidity 92.5%RH, 7d); 99.3% in data set [1] (High humidity 92.5%RH, 15d); 99.4% in data set [1] (High temperature 60°C, 7d); 99.4% in data set [1] (High temperature 60°C, 15d). Also, the purity is recorded as 99.2% in data set [1] (Light exposure 4500lux, 7d) and 99.2% in data set [1] (Light exposure 4500lux, 15d). Moreover, the “solubility (result in words)” value in data set [3] was “good solubility”; in data set [3] (listed as Crystal form A), “relatively good”.
As for `O=C(N[C@@H](Cc1ccc(N2C(=O)C3(CC3)c3ccc(F)c(F)c32)cc1)C(=O)O)c1c(F)cccc1Cl` [Crystal Form B, (S)-2-(2-chloro-6-fluorobenzoyl amido)-3-(4-(6',7'-difluoro-2'-oxospiro [cyclopropane-1,3'-indoline]-1'-yl)phenyl) propionic acid], the “Weight gain at 80% RH” value in data set [2] turned out to be 0.71%. The “hygroscopicity (according to the definition criteria for hygroscopic weight gain)” value in data set [2] is given as “a slight hygroscopicity”. In data set [1], the “change in the purity and form” value is listed as “no significant change”. The purity in data set [1] (Acceleration 40°C/75%RH, 0d) is on record as 99.79%; in data set [1] (High humidity 92.5%RH, 0d), 99.79%; in data set [1] (High temperature 60°C, 0d) it was 99.79%; in data set [1] (Light exposure 4500lux, 0d) it was 99.79%. Also, the “Form (crystal form by XRPD)” value in data set [1] (Acceleration 40°C/75%RH, 15d) is reported as “Unchanged”; in data set [1] (High humidity 92.5%RH, 15d) it was “Unchanged”; in data set [1] (High temperature 60°C, 15d), “Unchanged”; in data set [1] (Light exposure 4500lux, 15d), “Unchanged”. For the same compound, the solubility at 0.5 h in data set [3] (FaSSIF (pH 6.5)) came out at 3190 µg/mL (≈ 6.19 mM); in data set [3] (FeSSIF (pH 5.0)), 869 µg/mL (≈ 1.69 mM). The results for the solubility at 2 h in data set [3] (FaSSIF (pH 6.5)) and in data set [3] (FeSSIF (pH 5.0)) were 2960 µg/mL (≈ 5.75 mM) and 815 µg/mL (≈ 1.58 mM), respectively. Besides, the solubility at 24 h in data set [3] (FaSSIF (pH 6.5)) stood at 2790 µg/mL (≈ 5.42 mM); in data set [3] (FeSSIF (pH 5.0)), 734 µg/mL (≈ 1.43 mM). Further, the “solubility (result in words)” value in data set [3] is recorded as “good solubility”; in data set [3] (listed as Crystal form B), “relatively good”.
